Among the data in patent US9394260B2, “Pyrimidinone carboxamide inhibitors of endothelial lipase” (BRISTOL-MYERS SQUIBB COMPANY, priority 2012, dated 2016) are IC50 values, retold here.

The target of this test is T1, endothelial lipase (EL) (Homo sapiens, UniProt Q9Y5X9).
T1 construct: transformed by RAGE technology (Athersys) to overexpress endogenous EL; endogenous in cells; conditioned medium used as the enzyme source
T1 sequence (Q9Y5X9 21-500): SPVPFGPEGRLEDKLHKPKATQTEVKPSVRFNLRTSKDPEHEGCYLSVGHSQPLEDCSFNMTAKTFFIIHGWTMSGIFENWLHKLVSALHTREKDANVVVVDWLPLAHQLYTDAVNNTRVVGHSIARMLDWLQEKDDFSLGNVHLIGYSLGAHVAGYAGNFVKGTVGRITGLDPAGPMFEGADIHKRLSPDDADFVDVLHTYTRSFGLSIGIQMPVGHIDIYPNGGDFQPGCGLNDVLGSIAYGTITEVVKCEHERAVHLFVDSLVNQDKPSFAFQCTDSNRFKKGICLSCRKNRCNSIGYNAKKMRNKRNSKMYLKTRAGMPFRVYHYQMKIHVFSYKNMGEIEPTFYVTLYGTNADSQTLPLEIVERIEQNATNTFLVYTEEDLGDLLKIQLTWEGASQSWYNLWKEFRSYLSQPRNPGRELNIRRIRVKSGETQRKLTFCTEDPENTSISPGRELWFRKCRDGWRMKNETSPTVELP
Description: Endothelial lipase (EL) enzymatic assay with fluorescent substrate A10070 in DMPG vesicles. Type of test: biochemical. The conditions noted are these: conditioned media from HT-1080 cells overexpressing endogenous EL, 20 min preincubation at 37° C. As to the method:
Endothelial lipase activity was measured using a fluorescent substrate, A10070, (Invitrogen, CA) doped into an artificial vesicle containing DMPG (Avanti Polar Lipids) as the excipient. Vesicles were prepared by combining 285 μL of 1 mM DMPG in a 1:1 mixture of MeOH and CHCl3 with 15 μL of 1 mM A10070 in a 1:1 mixture of MeOH and CHCl3. The mixture was dried under nitrogen and resuspended in 150 μL of 50 mM HEPES pH 8.0 buffer containing 100 mM NaCl and 0.2 mM EDTA. The sample was allowed to sit at rt for 15 min and then was sonicated 3×4 mins on ice with a Branson Sonicator using duty cycle 1. This preparation provides vesicles with a mole fraction of 0.05 for the FRET substrate.
The enzymatic assay was measured using white, opaque 96-well half area plates. Each well contained 60 μL of assay buffer (50 mM HEPES pH 8.0, 50 mM NaCl and 1 mM CaCl2) and 2 ul of a DMSO solution containing compound of interest. Conditioned media obtained from HT-1080 cells, which were transformed by RAGE technology (Athersys) to overexpress endogenous EL, was added and the reaction was allowed to incubate for 20 min at 37° C. with gentle agitation. The reaction was started by the addition of 20 μL of a 1:4 dilution of vesicles. The final total reaction volume was 100 μL. The reaction rates were measured on a Gemini plate reader with an excitation wavelength of 488 nm and a emission of 530 nm. Readings were taken every 20 seconds for 10 min with agitation between each reading. The slope of the linear portion of the readout was used to calculate the rate of the reaction.
The exemplified examples disclosed in the present invention were tested in the EL assay described above and found having EL inhibitory activity. A range of EL IC50 values of ≦10 μM (10000 nM) was observed.
Regarding `C[C@@H](NC(=O)c1[nH]c(=O)[nH]c(=O)c1N)c1cccc(-c2cnn(Cc3cccc(C(N)=O)c3)c2)c1` [Example 141, (R)-5-amino-N-(1-(3-(1-(3-carbamoylbenzyl)-1H-pyrazol-4-yl)phenyl)ethyl)-2,6-dioxo-1,2,3,6-tetrahydro-pyrimidine-4-carboxamide], half-maximal inhibition (IC50) was put at 883 nM.

Consider `C[C@@H](NC(=O)c1[nH]c(=O)[nH]c(=O)c1N)c1cc(-c2cnn(Cc3ccccc3)c2)ccc1O` [Example 143, (R)-5-amino-N-(1-(5-(1-benzyl-1H-pyrazol-4-yl)-2-hydroxyphenyl)ethyl)-2,6-dioxo-1,2,3,6-tetrahydro-pyrimidine-4-carboxamide], for which half-maximal inhibition (IC50) required 6960 nM.

With `C[C@@H](NC(=O)c1[nH]c(=O)[nH]c(=O)c1N)c1cccc(-c2cnn(CCc3c[nH]c4ccccc34)c2)c1` [Example 155, (R)-N-(1-(3-(1-(2-(1H-indol-3-yl)ethyl)-1H-pyrazol-4-yl)phenyl)ethyl)-5-amino-2,6-dioxo-1,2,3,6-tetrahydro-pyrimidine-4-carboxamide], inhibition was half-maximal at 422 nM (IC50).

Turning to `C[C@@H](NC(=O)c1[nH]c(=O)[nH]c(=O)c1N)c1cccc(-c2cnn(Cc3nc4ccccc4s3)c2)c1` [Example 160, (R)-5-amino-N-(1-(3-(1-(benzo[d]thiazol-2-ylmethyl)-1H-pyrazol-4-yl)phenyl)ethyl)-2,6-dioxo-1,2,3,6-tetra-hydropyrimidine-4-carboxamide], half-maximal inhibition (IC50) was put at 369 nM.

In the case of `C[C@@H](NC(=O)c1[nH]c(=O)[nH]c(=O)c1N)c1cccc(-c2cnn(CC3CCN(C(=O)OCc4ccccc4)CC3)c2)c1` [Example 161, (R)-benzyl 4-((4-(3-(1-(5-amino-2,6-dioxo-1,2,3,6-tetra-hydropyrimidine-4-carboxamido)ethyl)phenyl)-1H-pyrazol-1-yl)methyl) piperidine-1-carboxylate], it took 441 nM to reach half-maximal inhibition (IC50).

On to `COc1ccc(CNc2c(C(=O)N[C@H](C)CCc3ccc(Cl)c(Cl)c3)[nH]c(=O)n(C)c2=O)cc1` [Example 171, (R)—N-(4-(3,4-Dichlorophenyl)butan-2-yl)-5-(4-methoxybenzylamino)-1-methyl-2,6-dioxo-1,2,3,6-tetrahydropyrimidine-4-carboxamide], for which the IC50 – broadly, the point on the concentration scale where inhibition reaches its midpoint – worked out at 358 nM.

The molecule `CCCOc1cc(F)ccc1CNC(=O)c1c(O)c(=O)n(C)c(=O)n1CCC` [Example 176, N-(4-fluoro-2-propoxybenzyl)-5-hydroxy-1-methyl-2,6-dioxo-3-propyl-1,2,3,6-tetra-hydropyrimidine-4-carboxamide] returned an IC50 of 4640 nM.

`C[C@@H](NC(=O)c1[nH]c(=O)[nH]c(=O)c1O)c1cccc(-c2cnn(Cc3ccccc3)c2)c1` [Example 181, (R)-N-(1-(3-(1-benzyl-1H-pyrazol-4-yl)phenyl)ethyl)-5-hydroxy-2,6-dioxo-1,2,3,6-tetra-hydropyrimidine-4-carboxamide] had an IC50 of 10 nM.

`C[C@@H](NC(=O)c1[nH]c(=O)[nH]c(=O)c1O)c1cccc(OCc2ccccc2)c1` [Example 182, (R)-N-(1-(3-(benzyloxy)phenyl)ethyl)-5-hydroxy-2,6-dioxo-1,2,3,6-tetrahydro-pyrimidine-4-carboxamide] gave an IC50 of 10 nM.
